# Where a SMILES comes first, the peptide text is derived from it. Bridges are numbered along the chain shown (N, C = ends). [ ]: non-standard residue; d: D form. The star is where a group is joined. dPhe(4-NO2) = N[C@H](Cc1ccc([N+](=O)[O-])cc1)C(=O)O; dPhe(3-Cl) = N[C@H](Cc1cccc(Cl)c1)C(=O)O; dPhe(2-Cl) = N[C@H](Cc1ccccc1Cl)C(=O)O; Heptanoyl(6-Me) = CC(C)CCCCC(=O)*; X2 = CC[C@H](C)CCCCC(=O)*; dDab = NCC[C@@H](N)C(=O)O; Octanoyl = CCCCCCCC(=O)*; Dab = NCC[C@H](N)C(=O)O; X9 = CCCCCCC(=O)CC(=O)*
# Assays:
# Assay type in all cases: cell-based
# [1] = system: Klebsiella pneumoniae ATCC BAA-2146 (NDM-1); assay: Antibacterial activity, MIC by dish double dilution method; conditions: ATCC BAA-2146
# Protocol: (§1) The minimum inhibitory concentration (MIC) was determined by means of dish double dilution method using a Multipoint inoculator according to the CLSI recommended method. The compounds of the present invention (for example, the compounds prepared in the Embodiments) and the reference substances were diluted twice each time with the broth into various desired concentrations, and appropriate amounts were added to the dishes. Agar medium is melted, and then quantitatively injected into the dish containing the drug solution, and mixed. The final concentrations of the compounds of the invention (e.g., the compounds prepared in the Embodiments) and the controls were 0.03, 0.06, 0.125, 0.25 . . . 128 μg/mL, respectively. The test bacteria were cultured overnight with nutrient broth, brain heart infusion or HTM broth. During the tests, the bacterial solutions were diluted appropriately, and the test bacteria (inoculation amount 10^4 CFU/dot) were inoculated on the surface of the drug-containing agar by a multi-point inoculator. After drying, the bacterial was incubated for 18 to 24 hours at 35° C., the results were observed, the minimum concentrations of the compounds of the present invention (for example, the compounds prepared in the Embodiments) and the controls contained in the dishes with no growth of colonies were MICs.
# (§2) The strains used in the antibacterial activity experiments were from the American Type Culture Collection (ATCC) and clinical isolates.
# (§3) The strains used for the experiments on antibacterial activity included Escherichia coli ATCC 25922, Klebsiella pneumoniae ATCC BAA-2146 (NDM-1), Pseudomonas aeruginosa ATCC 27853, Acinetobacter baumannii ATCC 19606 and Staphylococcus epidermidis ATCC 12228.
# (§4) Tested samples: polymyxin derivatives prepared according to the technical scheme of the present invention;
# (§5) Controls: polymyxin B sulfate and colistin (polymyxin E sulfate).
# [2] = system: Acinetobacter baumannii ATCC 19606; conditions: ATCC 19606
# Protocol: as §1, §2, §3, §4, §5
# [3] = system: Pseudomonas aeruginosa ATCC 27853; conditions: ATCC 27853
# Protocol: as §1, §2, §3, §4, §5
# [4] = system: Staphylococcus epidermidis ATCC 12228; conditions: ATCC 12228
# Protocol: as §1, §2, §3, §4, §5
# [5] = system: Escherichia coli ATCC 25922; conditions: ATCC 25922
# Protocol: as §1, §2, §3, §4, §5
smiles,measurement,setting,value
"CC[C@H](C)CCCCC(=O)N[C@@H](CCN)C(=O)N[C@H](C(=O)N[C@@H](CCN)C(=O)N[C@H]1CCNC(=O)[C@H]([C@@H](C)O)NC(=O)[C@H](CCN)NC(=O)[C@H](CCN)NC(=O)[C@H](CC(C)C)NC(=O)[C@@H](Cc2cccc(Cl)c2)NC(=O)[C@H](CCN)NC1=O)[C@@H](C)O [Compound 19, (S)-6-methyloctanoyl-Dab-Thr-Dab-ring(4-10)[Dab-Dab-D-Phe(3-Cl)-Lue-Dab-Dab-Thr]] (X2-[Dab]T[Dab][Dab][Dab][dPhe(3-Cl)]L[Dab][Dab]T; lactam 4-C)",MIC K. pneumoniae ATCC BAA-2146 (NDM-1),[1],2 mg/L
same,MIC A. baumannii ATCC 19606,[2],0.5 mg/L
same,MIC P. aeruginosa ATCC 27853,[3],2 mg/L
same,MIC S. epidermidis ATCC 12228,[4],4 mg/L
same,MIC E. coli ATCC 25922,[5],1 mg/L
"CCCCCCCC(=O)N[C@@H](CCN)C(=O)N[C@H](C(=O)N[C@@H](CO)C(=O)N[C@H]1CCNC(=O)[C@H]([C@@H](C)O)NC(=O)[C@H](CCN)NC(=O)[C@H](CCN)NC(=O)[C@H](CC(C)C)NC(=O)[C@@H](CC(C)C)NC(=O)[C@H](CCN)NC1=O)[C@@H](C)O [Compound 98, octanoyl-Dab-Thr-Ser-ring(4-10)[Dab-Dab-D-Leu-Leu-Dab-Dab-Thr]] (Octanoyl-[Dab]TS[Dab][Dab][dL]L[Dab][Dab]T; lactam 4-C)",MIC K. pneumoniae ATCC BAA-2146 (NDM-1),[1],1 mg/L
same,MIC A. baumannii ATCC 19606,[2],0.5 mg/L
same,MIC P. aeruginosa ATCC 27853,[3],1 mg/L
same,MIC S. epidermidis ATCC 12228,[4],>128 mg/L
same,MIC E. coli ATCC 25922,[5],0.5 mg/L
"CC[C@H](C)CCCCC(=O)N[C@@H](CCN)C(=O)N[C@H](C(=O)N[C@@H](CCN)C(=O)N[C@H]1CCNC(=O)[C@H]([C@@H](C)O)NC(=O)[C@H](CCN)NC(=O)[C@H](CCN)NC(=O)[C@H](CC(C)C)NC(=O)[C@@H](Cc2ccc([N+](=O)[O-])cc2)NC(=O)[C@H](CCN)NC1=O)[C@@H](C)O [Compound 14, (S)-6-methyloctanoyl-Dab-Thr-Dab-ring(4-10)[Dab-Dab-D-Phe(4-NO2)-Lue-Dab-Dab-Thr]] (X2-[Dab]T[Dab][Dab][Dab][dPhe(4-NO2)]L[Dab][Dab]T; lactam 4-C)",MIC K. pneumoniae ATCC BAA-2146 (NDM-1),[1],2 mg/L
same,MIC A. baumannii ATCC 19606,[2],1 mg/L
same,MIC P. aeruginosa ATCC 27853,[3],2 mg/L
same,MIC S. epidermidis ATCC 12228,[4],8 mg/L
same,MIC E. coli ATCC 25922,[5],1 mg/L
"CCCCCCCC(=O)N[C@@H](CCN)C(=O)N[C@H](C(=O)N[C@@H](CCN)C(=O)N[C@H]1CCNC(=O)[C@H]([C@@H](C)O)NC(=O)[C@H](CCN)NC(=O)[C@H](CCN)NC(=O)[C@H]([C@@H](C)O)NC(=O)[C@@H](CC(C)C)NC(=O)[C@H](CCN)NC1=O)[C@@H](C)O [Compound 104, octanoyl-Dab-Thr-Dab-ring(4-10)[Dab-Dab-D-Leu-Thr-Dab-Dab-Thr]] (Octanoyl-[Dab]T[Dab][Dab][Dab][dL]T[Dab][Dab]T; lactam 4-C)",MIC K. pneumoniae ATCC BAA-2146 (NDM-1),[1],0.5 mg/L
same,MIC A. baumannii ATCC 19606,[2],0.5 mg/L
same,MIC P. aeruginosa ATCC 27853,[3],1 mg/L
same,MIC S. epidermidis ATCC 12228,[4],64 mg/L
same,MIC E. coli ATCC 25922,[5],0.25 mg/L
"CC[C@H](C)CCCCC(=O)N[C@@H](CCN)C(=O)N[C@H](C(=O)N[C@@H](CCN)C(=O)N[C@H]1CCNC(=O)[C@H]([C@@H](C)O)NC(=O)[C@H](CCN)NC(=O)[C@H](CCN)NC(=O)[C@H](CC(C)C)NC(=O)[C@@H](Cc2ccc(OC)cc2)NC(=O)[C@H](CCN)NC1=O)[C@@H](C)O [Compound 24, (S)-6-methyloctanoyl-Dab-Thr-Dab-ring(4-10)[Dab-Dab-D-Phe(4-OCH3)-Lue-Dab-Dab-Thr]] (X2-[Dab]T[Dab][Dab][Dab][dY](Me)L[Dab][Dab]T; lactam 4-C)",MIC K. pneumoniae ATCC BAA-2146 (NDM-1),[1],2 mg/L
same,MIC A. baumannii ATCC 19606,[2],1 mg/L
same,MIC P. aeruginosa ATCC 27853,[3],2 mg/L
same,MIC S. epidermidis ATCC 12228,[4],16 mg/L
same,MIC E. coli ATCC 25922,[5],1 mg/L
"CC[C@H](C)CCCCC(=O)N[C@@H](CCN)C(=O)N[C@H](C(=O)N[C@@H](CCN)C(=O)N[C@H]1CCNC(=O)[C@H]([C@@H](C)O)NC(=O)[C@H](CCN)NC(=O)[C@H](CCN)NC(=O)[C@H](CC(C)C)NC(=O)[C@@H](Cc2ccccc2Cl)NC(=O)[C@H](CCN)NC1=O)[C@@H](C)O [Compound 18, (S)-6-methyloctanoyl-Dab-Thr-Dab-ring(4-10)[Dab-Dab-D-Phe(2-Cl)-Lue-Dab-Dab-Thr]] (X2-[Dab]T[Dab][Dab][Dab][dPhe(2-Cl)]L[Dab][Dab]T; lactam 4-C)",MIC K. pneumoniae ATCC BAA-2146 (NDM-1),[1],2 mg/L
same,MIC A. baumannii ATCC 19606,[2],0.5 mg/L
same,MIC P. aeruginosa ATCC 27853,[3],2 mg/L
same,MIC S. epidermidis ATCC 12228,[4],4 mg/L
same,MIC E. coli ATCC 25922,[5],1 mg/L
"CC(C)CCCCC(=O)N[C@@H](CCN)C(=O)N[C@H](C(=O)N[C@H](CCN)C(=O)N[C@H]1CCNC(=O)[C@H]([C@@H](C)O)NC(=O)[C@H](CCN)NC(=O)[C@H](CCN)NC(=O)[C@H]([C@@H](C)O)NC(=O)[C@@H](Cc2ccccc2)NC(=O)[C@H](CCN)NC1=O)[C@@H](C)O [Compound 144, 6-methylheptanoyl-Dab-Thr-D-Dab-ring(4-10)[Dab-Dab-D-Phe-Thr-Dab-Dab-Thr]] ({Heptanoyl(6-Me)}-[Dab]T[dDab][Dab][Dab][dF]T[Dab][Dab]T; lactam 4-C)",MIC K. pneumoniae ATCC BAA-2146 (NDM-1),[1],1 mg/L
same,MIC A. baumannii ATCC 19606,[2],1 mg/L
same,MIC P. aeruginosa ATCC 27853,[3],1 mg/L
same,MIC S. epidermidis ATCC 12228,[4],>128 mg/L
same,MIC E. coli ATCC 25922,[5],0.5 mg/L
"CC[C@H](C)CCCCC(=O)N[C@@H](CCN)C(=O)N[C@H](C(=O)N[C@@H](CCN)C(=O)N[C@H]1CCNC(=O)[C@H]([C@@H](C)O)NC(=O)[C@H](CCN)NC(=O)[C@H](CCN)NC(=O)[C@H]([C@@H](C)O)NC(=O)[C@@H](CC(C)C)NC(=O)[C@H](CCN)NC1=O)[C@@H](C)O [Compound 102, (S)-6-methyloctanoyl-Dab-Thr-Dab-ring(4-10)[Dab-Dab-D-Leu-Thr-Dab-Dab-Thr]] (X2-[Dab]T[Dab][Dab][Dab][dL]T[Dab][Dab]T; lactam 4-C)",MIC K. pneumoniae ATCC BAA-2146 (NDM-1),[1],0.25 mg/L
same,MIC A. baumannii ATCC 19606,[2],0.5 mg/L
same,MIC P. aeruginosa ATCC 27853,[3],1 mg/L
same,MIC S. epidermidis ATCC 12228,[4],>128 mg/L
same,MIC E. coli ATCC 25922,[5],1 mg/L
"CCCCCCCC(=O)N[C@@H](CCN)C(=O)N[C@H](C(=O)N[C@H](CCN)C(=O)N[C@H]1CCNC(=O)[C@H]([C@@H](C)O)NC(=O)[C@H](CCN)NC(=O)[C@H](CCN)NC(=O)[C@H]([C@@H](C)O)NC(=O)[C@@H](CC(C)C)NC(=O)[C@H](CCN)NC1=O)[C@@H](C)O [Compound 32, octanoyl-Dab-Thr-D-Dab-ring(4-10)[Dab-Dab-D-Leu-Thr-Dab-Dab-Thr]] (Octanoyl-[Dab]T[dDab][Dab][Dab][dL]T[Dab][Dab]T; lactam 4-C)",MIC K. pneumoniae ATCC BAA-2146 (NDM-1),[1],0.5 mg/L
same,MIC A. baumannii ATCC 19606,[2],0.5 mg/L
same,MIC P. aeruginosa ATCC 27853,[3],1 mg/L
same,MIC S. epidermidis ATCC 12228,[4],>128 mg/L
same,MIC E. coli ATCC 25922,[5],0.5 mg/L
"CCCCCCCC(=O)N[C@@H](CCN)C(=O)N[C@H](C(=O)N[C@@H](CCN)C(=O)N[C@H]1CCNC(=O)[C@H]([C@@H](C)O)NC(=O)[C@H](CCN)NC(=O)[C@H](CCN)NC(=O)[C@H]([C@@H](C)CC)NC(=O)[C@@H](CC(C)C)NC(=O)[C@H](CCN)NC1=O)[C@@H](C)O [Compound 79, octanoyl-Dab-Thr-Dab-ring(4-10)[Dab-Dab-D-Leu-Ile-Dab-Dab-Thr]] (Octanoyl-[Dab]T[Dab][Dab][Dab][dL]I[Dab][Dab]T; lactam 4-C)",MIC K. pneumoniae ATCC BAA-2146 (NDM-1),[1],1 mg/L
same,MIC A. baumannii ATCC 19606,[2],0.5 mg/L
same,MIC P. aeruginosa ATCC 27853,[3],1 mg/L
same,MIC S. epidermidis ATCC 12228,[4],>128 mg/L
same,MIC E. coli ATCC 25922,[5],0.5 mg/L
"CCCCCCC(=O)CC(=O)N[C@@H](CCN)C(=O)N[C@H](C(=O)N[C@@H](CCN)C(=O)N[C@H]1CCNC(=O)[C@H]([C@@H](C)O)NC(=O)[C@H](CCN)NC(=O)[C@H](CCN)NC(=O)[C@H](CC(C)C)NC(=O)[C@@H](Cc2ccccc2)NC(=O)[C@H](CCN)NC1=O)[C@@H](C)O [Compound 6, 3-oxononanoyl-Dab-Thr-Dab-ring(4-10)[Dab-Dab-D-Phe-Lue-Dab-Dab-Thr]] (X9-[Dab]T[Dab][Dab][Dab][dF]L[Dab][Dab]T; lactam 4-C)",MIC K. pneumoniae ATCC BAA-2146 (NDM-1),[1],1 mg/L
same,MIC A. baumannii ATCC 19606,[2],2 mg/L
same,MIC P. aeruginosa ATCC 27853,[3],2 mg/L
same,MIC S. epidermidis ATCC 12228,[4],16 mg/L
same,MIC E. coli ATCC 25922,[5],1 mg/L

# From patent publication US20190315806A1, “POLYMYXIN DERIVATIVE, PREPARATION METHOD AND APPLICATION THEREOF” (priority 2016, published 2019)
